Our source for the ED90, IC50 and inhibition values is ChEMBL document CHEMBL1127172, “Novel pseudosymmetric inhibitors of HIV-1 protease” (Bioorg Med Chem Lett, 1993).

Bounds are passed on as bounds.

Assay [1] relates to Human immunodeficiency virus 1. The experiment in a line: Antiviral activity against HIV-1 LAV virus infected MT-2 cells with reference to AZT (ED90=0.3 uM). The format is functional, MT2.
In assay [2] the target is Human immunodeficiency virus type 1 protease (Human immunodeficiency virus 1, UniProt Q72874). The experiment in a line: In vitro inhibition of HIV-1 protease at pH 6 using 164 uM peptide substrate.
Assay [3] addresses Human immunodeficiency virus type 1 protease (Human immunodeficiency virus 1) (UniProt Q72874). Kind of assay: The compound was tested in vitro for the % inhibition of HIV-1 protease at 100 uM concentration.
In assay [4] the target is T1, Cathepsin E (Homo sapiens, UniProt P14091).
T1 sequence (P14091 whole entry): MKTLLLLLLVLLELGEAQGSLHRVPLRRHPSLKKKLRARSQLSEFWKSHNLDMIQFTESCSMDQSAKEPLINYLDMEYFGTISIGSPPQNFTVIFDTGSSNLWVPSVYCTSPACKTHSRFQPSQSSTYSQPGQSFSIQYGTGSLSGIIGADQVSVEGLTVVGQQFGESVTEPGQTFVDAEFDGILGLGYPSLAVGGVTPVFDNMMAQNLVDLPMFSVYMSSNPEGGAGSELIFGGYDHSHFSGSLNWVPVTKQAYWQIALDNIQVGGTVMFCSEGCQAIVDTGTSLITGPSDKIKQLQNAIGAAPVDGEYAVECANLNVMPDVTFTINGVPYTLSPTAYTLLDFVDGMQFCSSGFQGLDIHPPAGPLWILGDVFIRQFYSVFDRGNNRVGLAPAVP
The experiment in a line: The compound was tested for its inhibitory activity against human cathepsin E.

Assay [5] concerns the target Cathepsin D (Homo sapiens, UniProt P07339). Kind of assay: The compound was tested for its inhibitory activity against human cathepsin D.
For assay [6], the target named is T2, Gastricsin (Homo sapiens, UniProt P20142).
T2 sequence (P20142 whole entry): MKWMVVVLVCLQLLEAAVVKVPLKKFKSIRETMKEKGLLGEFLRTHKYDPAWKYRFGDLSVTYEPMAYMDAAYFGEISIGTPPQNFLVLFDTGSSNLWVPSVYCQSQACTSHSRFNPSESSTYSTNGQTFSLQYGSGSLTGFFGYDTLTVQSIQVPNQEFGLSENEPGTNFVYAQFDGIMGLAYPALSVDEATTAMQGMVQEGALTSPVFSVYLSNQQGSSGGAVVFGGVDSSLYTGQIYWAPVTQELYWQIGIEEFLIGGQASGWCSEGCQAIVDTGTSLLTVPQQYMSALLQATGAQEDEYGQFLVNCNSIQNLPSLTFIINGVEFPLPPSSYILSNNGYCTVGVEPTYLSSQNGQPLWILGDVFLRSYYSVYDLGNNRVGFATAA
The experiment in a line: The compound was tested for its inhibitory activity against human gastricsin.

For assay [7], the target named is T3, Renin (Homo sapiens, UniProt P00797).
T3 sequence (P00797 whole entry): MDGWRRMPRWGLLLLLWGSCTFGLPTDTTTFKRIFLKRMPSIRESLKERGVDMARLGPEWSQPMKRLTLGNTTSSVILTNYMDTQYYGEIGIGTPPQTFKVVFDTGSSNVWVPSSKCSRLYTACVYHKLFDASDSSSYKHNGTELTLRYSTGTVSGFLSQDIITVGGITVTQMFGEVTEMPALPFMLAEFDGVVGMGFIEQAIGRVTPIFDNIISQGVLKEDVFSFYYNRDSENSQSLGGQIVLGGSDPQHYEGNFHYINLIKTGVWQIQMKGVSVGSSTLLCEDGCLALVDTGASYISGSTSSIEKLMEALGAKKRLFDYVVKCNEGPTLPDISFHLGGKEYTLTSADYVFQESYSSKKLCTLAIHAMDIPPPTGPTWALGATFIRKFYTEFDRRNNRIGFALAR
The experiment in a line: The compound was tested for its inhibitory activity against human renin.

The test system of assay [8] is MT2. The experiment in a line: The compound was tested for its antiviral activity against HIV-1LAV virus infected MT-2 cells. The assay is classed as functional, Homo sapiens.

Sequence of Cathepsin D (P07339 65-162 limits assumed): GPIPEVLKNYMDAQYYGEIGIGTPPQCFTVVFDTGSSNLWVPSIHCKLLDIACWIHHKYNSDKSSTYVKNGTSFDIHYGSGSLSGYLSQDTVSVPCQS
Sequence of Cathepsin D (P07339 169-412 limits assumed): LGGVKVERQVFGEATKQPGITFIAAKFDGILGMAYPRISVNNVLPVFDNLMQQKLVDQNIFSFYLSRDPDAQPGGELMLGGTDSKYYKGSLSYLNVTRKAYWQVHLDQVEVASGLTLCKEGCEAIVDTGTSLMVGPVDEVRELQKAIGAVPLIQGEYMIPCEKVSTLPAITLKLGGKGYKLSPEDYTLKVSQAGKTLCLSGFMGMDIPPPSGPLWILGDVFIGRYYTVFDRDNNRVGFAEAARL

The IC50 is the concentration needed to halve the response being measured. The low end stands for inhibition by little substance, the high end for a need for much substance. Consider `CC(=O)N[C@H](C(=O)N[C@@H](Cc1ccccc1)[C@@H](O)CN(Cc1ccccc1)NC(=O)[C@H](NC(C)=O)C(C)C)C(C)C`, for which the ED90 in assay [1] is 10000 nM. Besides, in assay [2], the IC50 is 30 nM.

Compound `CC(C)[C@H](NC(=O)Cc1ccccc1)C(=O)N[C@@H](Cc1ccccc1)[C@@H](O)CN(Cc1ccccc1)NC(=O)[C@H](NC(=O)Cc1ccccc1)C(C)C` displayed an IC50 in assay [2] of 360 nM. In other words, the sub-micromolar range. By inhibition is commonly meant the percentage by which the read-out fell short of the control. For the compound `CC(C)[C@H](NC(=O)OCc1ccccc1)C(=O)NN(Cc1ccccc1)C[C@H](O)[C@H](Cc1ccccc1)NC(=O)[C@H](NC(=O)OCc1ccccc1)C(C)C`, in assay [2], the IC50 was > 100000 nM. In assay [3], this compound came in with an inhibition of 40%.

In the case of `CC(C)[C@H](NC(=O)OC(C)(C)C)C(=O)N[C@@H](Cc1ccccc1)[C@@H](O)CN(Cc1ccccc1)NC(=O)[C@H](NC(=O)OC(C)(C)C)C(C)C`, the midpoint of inhibition in assay [2], the IC50, lay at 52000 nM. In other words, the double-digit micromolar range. The compound `CC(C)[C@H](NC(=O)OCc1ccccc1)C(=O)N[C@@H](Cc1ccccc1)[C@@H](O)CN(Cc1ccc(F)cc1)NC(=O)[C@@H](NC(=O)OCc1ccccc1)C(C)C` gave an ED90 in assay [1] of 1000 nM. Also, the 50% inhibitory concentration (IC50) in assay [2] worked out at 22 nM.

On to `CC(C)[C@H](NC(=O)OCc1ccccc1)C(=O)N[C@@H](Cc1ccccc1)[C@@H](O)CN(Cc1ccc(C#N)cc1)NC(=O)[C@@H](NC(=O)OCc1ccccc1)C(C)C`, for which the ED90 in assay [1] stood at 100 nM. Also, the IC50 in assay [2] turned out to be 24 nM.

Consider `CC(=O)N[C@H](C(=O)N[C@@H](Cc1ccccc1)[C@@H](O)CN(CC(C)C)NC(=O)[C@@H](NC(C)=O)C(C)C)C(C)C`, for which the ED90 in assay [1] was >1000 nM. The compound further showed an IC50 in assay [2] of 45 nM. Take `CC(C)(C)OC(=O)N[C@@H](Cc1ccccc1)[C@@H](O)CN(Cc1ccccc1)NC(=O)OC(C)(C)C`: in assay [2], the IC50 was ~50000 nM. Same read-out and setting: next, `CC(C)[C@H](NC(=O)Cc1cccnc1)C(=O)N[C@@H](Cc1ccccc1)[C@@H](O)CN(Cc1ccccc1)NC(=O)[C@H](NC(=O)Cc1cccnc1)C(C)C`: 500 nM. Take `CC(C)[C@H](N)C(=O)N[C@@H](Cc1ccccc1)[C@@H](O)CN(Cc1ccccc1)NC(=O)[C@H](N)C(C)C`: the IC50 in assay [2] is > 100000 nM. The compound further had an inhibition in assay [3] of 32%.

As for `CC(C)[C@H](NC(=O)N1CCOCC1)C(=O)N[C@@H](Cc1ccccc1)[C@@H](O)CN(Cc1ccccc1)NC(=O)[C@H](NC(=O)N1CCOCC1)C(C)C`, inhibition in assay [2] was half-maximal at 2000 nM (IC50). On to `CC(=O)N[C@H](C(=O)N[C@@H](Cc1ccccc1)[C@@H](O)CN(CC1CCCCC1)NC(=O)[C@@H](NC(C)=O)C(C)C)C(C)C`, for which the 50% inhibitory concentration (IC50) was 2000 nM in assay [4]; 7500 nM in assay [5]; 1000 nM in assay [6]; 9 nM in assay [2]; > 58000 nM in assay [7]. The same compound registered an ED90 in assay [1] of 1000 nM. For `CC(=O)N[C@H](C(=O)N[C@@H](Cc1ccccc1)[C@@H](O)CN(Cc1ccc(C#N)cc1)NC(=O)[C@@H](NC(C)=O)C(C)C)C(C)C`, in assay [1], the ED90 is >10000 nM. In addition, in assay [2], the IC50 was found to be 50 nM. `Cc1cn([C@H]2C[C@H](N=[N+]=[N-])[C@@H](CO)O2)c(=O)[nH]c1=O` [ZIDOVUDINE] returned an ED90 in assay [8] of 300 nM. In turn, `CC(C)[C@H](NC(=O)OCc1ccccc1)C(=O)N[C@@H](Cc1ccccc1)[C@@H](O)CN(Cc1ccccc1)NC(=O)[C@H](NC(=O)OCc1ccccc1)C(C)C` had an ED90 in assay [1] of 100 nM. In assay [2], this compound gave an IC50 of 33 nM. In the case of `CC(C)CN(C[C@H](O)[C@H](Cc1ccccc1)NC(=O)[C@@H](NC(=O)OCc1ccccc1)C(C)C)NC(=O)[C@@H](NC(=O)OCc1ccccc1)C(C)C`, in assay [1], the ED90 is >1000 nM. For the same compound, the IC50 in assay [2] was 10 nM.

In turn, `CC(C)[C@H](NC(=O)OCc1ccccc1)C(=O)N[C@@H](Cc1ccccc1)[C@@H](O)CN(CC1CCCCC1)NC(=O)[C@@H](NC(=O)OCc1ccccc1)C(C)C` had an ED90 in assay [1] of 1000 nM. Further, the IC50 in assay [2] came to 95 nM. On to `CC(C)[C@H](NC(=O)c1ccc2ccccc2n1)C(=O)N[C@@H](Cc1ccccc1)[C@@H](O)CN(Cc1ccccc1)NC(=O)[C@H](NC(=O)c1ccc2ccccc2n1)C(C)C`, for which, in assay [2], inhibition was half-maximal at 65 nM (IC50). With `CC(=O)N[C@H](C(=O)N[C@@H](Cc1ccccc1)[C@@H](O)CN(Cc1ccc(F)cc1)NC(=O)[C@@H](NC(C)=O)C(C)C)C(C)C`, the ED90 in assay [1] came to 10000 nM. Half-maximal inhibition in assay [2] (IC50) was put at 28 nM.
